Entries after “also recorded” stand apart in the source; their conditions may differ. Where a SMILES comes first, the peptide text is derived from it. The star is where a group is joined. Cbz = O=C(OCc1ccccc1)*; CH2F = FC*
Columns and labels:
caspase-3 = test: SJG-136 induced caspase-3 activation in B-CLL cells (PhiPhiLux G1D2 substrate, flow cytometry); type: cell-based, human; settings: inhibitor final concentration 2 μM, SJG-136-treated B-CLL cell cultures
Procedure: B-CLL cells were incubated at 37° C. in a humidified 5% carbon dioxide atmosphere in the presence of SJG-136 (10^−10−10^−7 M) or fludarabine (10^−7″10^−5 M) for 12, 24 and 48 h. Cells were then harvested by centrifugation and labeled with CD19 RPE-cy5 conjugated antibody. Subsequently the cells were incubated for 1 h at 37° C. in the presence of the PhiPhiLux™ G1D2 substrate (Calbiochem, Nottingham, UK). The substrate contains two fluorophores separated by a quenching linker sequence that is cleaved by active caspase-3. Once cleaved the resulting products fluoresce green and can be quantified using flow cytometry. In additional experiments the caspase-8 inhibitor, Z-IETD-FMK, or the caspase-9 inhibitor, Z-LEHD-FMK, (Cambridge Bioscience, Cambridge, UK) were added to SJG-136-treated cell cultures (final concentration 2 μM) in order to determine whether either of these inhibitors was able to abrogate the apoptotic effects of SJG-136 in B-CLL cells.

B-CLL cells [1] = test: Flow cytometry-based in vitro apoptosis assay (FSC/SSC, Annexin V) in primary B-CLL cells; type: cell-based, human; settings: for degree of apoptosis in the cell culture: B-CLL cultures of the p53/GADD45 experiment (FIG. 4b); for mean LD50 in previously treated versus untreated patient sub-set: 34 patient cohort (FIG. 5)
Text: Peripheral blood samples from 34 patients with B-CLL (20 untreated and 14 treated) and 10 age-matched normal controls were obtained with the patients' informed consent. B-CLL was defined by clinical criteria as well as cellular morphology and the co-expression of CD19 and CD5 in lymphocytes simultaneously displaying restriction of light-chain rearrangement. Staging was based on the Binet classification system.^14 None of the previously treated patients had received therapy for at least three months prior to this study.
Freshly isolated peripheral blood lymphocytes (1×10^6/ml) were cultured in Eagles medium (Invitrogen, Paisley, UK) supplemented with 100 units/ml penicillin, 100 μg/ml streptomycin and 10% fetal calf serum. Lymphocytes were incubated at 37° C. in a humidified 5% carbon dioxide atmosphere in the presence of SJG-136 (10^−10−10^−7 M). […]
In this study changes in forward light scatter (FSC) and side light scatter (SSC) characteristics were used to quantify apoptotic and viable cell populations as described previously.^16-18 Typically, lymphocytes show a reduction in FSC (a function of cytoplasmic shrinkage) and an increase in SSC (due to increased granularity) when they undergo apoptosis.^19 The quantitation of apoptosis using an FSC/SSC gating strategy in conjunction with back gating of R-phycoerythrin cyanine 5 (RPE-cy5) labeled CD19+ (Dako) or R-phycoerythrin labeled CD3+ (Dako) lymphocytes allowed simultaneous acquisition of data in viable and apoptotic B-lymphocyte and T-lymphocyte sub-populations, respectively. All LD50 and LD90 values (the concentration of the relevant chemotheraputic agent required to kill 50% and 90% of cells respectively) were derived from the dose-response curves. Duplicate samples were assessed using fluorescein (FITC)-labeled Annexin V to confirm the presence of apoptotic cells in the cell cultures and to validate the FSC/SSC quantitation method.^20
The data obtained in these experiments were evaluated using the equal variance and paired Student's t-test, and correlation coefficients were calculated from least squares linear regression plots. LD50 values were calculated from line of best-fit analysis of the dose response curves. All statistical analyses were performed using Graphpad Prism 3.0 software (Graphpad Software Inc., San Diego, Calif.).
A flow cytometry-based in vitro apoptosis detection assay was used to determine whether SJG-136 could induce apoptotic cell death in B-CLL cells. The characteristic changes in the forward and side light scatter resulting from cellular shrinkage described previously were used to define apoptosis.^19 In addition, Annexin V labeling was also performed in order to verify the light scatter data.

phosphorylated p53 = test: Intracellular staining of phosphorylated p53 in B-CLL cells by flow cytometry; type: cell-based, human; settings: 10 μM chlorambucil or 25 nM SJG-136, versus no-drug control (FIG. 4a)
Procedure: (§1) B-CLL cells were cultured for 4h and 48h in the presence or absence of one of the drugs under investigation. Cells were harvested by centrifugation and incubated with 10 μL of anti-CD19-RPE-cy5 conjugated antibody. Subsequently the cells were washed with phosphate buffered saline (PBS) at pH 7.2 and then prepared for intracellular staining of phosphorylated p53 and GADD45 (Santa Cruz Biotechnology, Santa Cruz, Calif.) using a commercially available kit (DAKO, Ely, UK). A FITC-labeled secondary antibody was added to the cells (DAKO) and after a final washing step the cells were resuspended in 0.5 mL of 1% paraformaldehyde prior to flow cytometric analysis using a FACScan flow cytometer (Becton Dickinson, Calif.).
(§2) Phosphorylation of p53 and expression of GADD45 were measured in control B-CLL cell samples with no cytotoxic agent added and in B-CLL cell samples in the presence of either chloambucil or SJG-136.

GADD45 = test: Intracellular staining of GADD45 expression in B-CLL cells by flow cytometry; type: cell-based, human; settings: B-CLL cells versus no-drug control (FIG. 4b)
Procedure: as §1, §2

B-CLL cells [2] = test: Flow cytometry-based in vitro apoptosis assay (FSC/SSC, Annexin V) in primary B-CLL cells; type: cell-based, human; settings: for mean LD50 in previously treated versus untreated patient sub-set: expanded cohort of 46 patients (FIG. 10)
calf thymus DNA = settings: after incubation for 18 hours at 37° C.; cited from earlier work
[3] = 34 B-CLL patient samples, 48 h exposure
[4] = expanded cohort, 46 B-CLL patient samples

COC(=O)CC[C@H](NC(=O)[C@H](CC(C)C)NC(=O)OCc1ccccc1)C(=O)N[C@@H](Cc1cnc[nH]1)C(=O)N[C@@H](CC(=O)OC)C(=O)CF [Z-LEHD-FMK] (Cbz-LE(OMe)HD(OMe)-CH2F)
abrogation of SJG-136-induced caspase-3 activation by added caspase inhibitor (caspase-3): partially abrogated

O=C(O)CCCc1ccc(N(CCCl)CCCl)cc1 [chlorambucil]
degree of apoptosis in the cell culture (B-CLL cells [1]): significantly increased over the control experiment
phosphorylated p53 (p-p53) (phosphorylated p53): an increase in phosphorylated p53
GADD45 expression (GADD45): much higher; also recorded: marked increase in GADD45 expression

Nc1nc(F)nc2c1ncn2[C@@H]1O[C@H](CO)[C@@H](O)[C@@H]1O [fludarabine, reference compound]
mean LD50 in previously treated versus untreated patient sub-set (B-CLL cells [1]): significantly higher mean LD50 value
in vitro sensitivity of samples from two treated patients with known p53 mutation (B-CLL cells [1]; compared with remaining patient samples): high degree of in vitro resistance
mean LD50 in previously treated versus untreated patient sub-set (B-CLL cells [2]): significantly higher mean LD50 value

CC[C@H](C)[C@H](NC(=O)OCc1ccccc1)C(=O)N[C@@H](CCC(=O)OC)C(=O)N[C@H](C(=O)N[C@@H](CC(=O)OC)C(=O)CF)[C@@H](C)O [Z-IETD.FMK, Z-IETD-FMK] (Cbz-IE(OMe)TD(OMe)-CH2F)
abrogation of SJG-136-induced caspase-3 activation by added caspase inhibitor (caspase-3): not

C=C1C[C@H]2C=Nc3cc(OCCCOc4cc5c(cc4OC)C(=O)N4CC(=C)C[C@H]4C=N5)c(OC)cc3C(=O)N2C1 [SJG-136]
mean LD50 value (±SD) (B-CLL cells [1]; [3]): 9.06 nM
mean LD90 value (±SD) (B-CLL cells [1]; [3]): 43.09 nM
patient samples in which apoptosis was induced (B-CLL cells [1]; 34 patient cohort): all 34 patient samples
mean LD50 in previously treated versus untreated patient sub-set (B-CLL cells [1]): no effect
degree of apoptosis in the cell culture (B-CLL cells [1]): greater degree of apoptosis than either the control experiment or the chlorambucil experiment
phosphorylated p53 (p-p53) (phosphorylated p53): none of the B-CLL cells (n=9) treated with SJG-136 phosphorylated p53
GADD45 expression (GADD45): only slightly higher than in the control experiment
increase in the thermal denaturation of calf thymus DNA (calf thymus DNA): 33.6 °C
patient samples in which apoptosis was induced (B-CLL cells [2]; 46 patient cohort): all 46 patient samples
mean LD50 in previously treated versus untreated patient sub-set (B-CLL cells [2]): no effect
mean LD50 value (±SD) (B-CLL cells [2]; [4]): 0.19 nM
mean LD90 value (±SD) (B-CLL cells [2]; [4]): 38.63 nM
